Article PMC8171317, “Total synthesis, isolation, surfactant properties, and biological evaluation of ananatosides and related macrodilactone-containing rhamnolipids” (Chemical Science, 2021)

Experiments:
[1] = Surface tension and CMC, Fisher tensiometer, du Noüy ring method; format: physicochemical; design: γ CMC (surface tension at CMC): unit not given here; details: pH 7.0; synthetic samples
Experimental: Biosurfactants are molecules that can associate with each other leading to the formation of micelles. They can also interact with surfaces between phases of different polarity such as the air/water or oil/water interface.[77] To gain quantitative insights into the surface-active properties of microbial glycolipids, the surface tensions at CMC (γCMC) of ananatoside A (1) and ananatoside B (2) were measured using a Fisher tensiometer by means of the du Noüy ring method. The CMC, referring to the concentration of surfactant at which micelles start to form, was determined from a plot of surface tension again each concentration. […] Consequently, the surface tension measurements were performed quickly to avoid the precipitation of ananatoside A (1) into the aqueous medium.

[2] = tested on: tomato leaf disks; test: Extracellular ROS production, luminol chemiluminescence; format: cell-based, Solanum lycopersicum; details: 100 μM, monitored over 720 min
Source text: Bacterial rhamnolipids, such as compound 3, trigger the plant immune system, which can ultimately lead to plant protection against diseases caused by fungal and bacterial pathogens.[23] As ananatoside A (1) and ananatoside B (2) share structural similarities with rhamnolipid 3 and because they have been isolated from P. ananatis cultures, an emerging plant pathogen causing important agricultural damage worldwide,[81] we wanted to investigate whether these bacterial glycolipids, along with our unprecedented series of synthetic rhamnolactones, could be perceived by the plant immune system. We relied on measuring the extracellular content of reactive oxygen species (ROS) produced by tomato plants (Solanum lycopersicum) following treatment with the synthetic compounds, as an early and important marker of plant immunity.[20,22,82] Tomato leaves were challenged with synthetic glycolipids 1–6 at concentrations of 100 μM and the production of ROS was monitored over a 720 min time frame (Fig. 5).
Fig. 5 Extracellular reactive oxygen species (ROS) production following treatment of tomato leaf disks with ananatoside A (1), ananatoside B (2), RhaC10C10 (3), and related macrodilactone-containing rhamnolipids (4–6). Production of ROS was measured in tomato leaf disks following treatment at 100 μM with synthetic glycolipids (1–6). MeOH (0.5%) was used as a control. ROS production was measured using the chemiluminescence of luminol and photon counts were expressed as relative luminescence units (RLUs). Data are mean ± SEM (n = 6). Experiments were independently realized three times with similar results. […]
Plant Material and Growth Conditions. Tomato plants (Solanum lycopersicum L var. Ailsa craig, Scotland) were grown on soil in growth chamber with white fluorescent light [200 μmol•(m−2 s−1)], under 16 h/8 h light/dark regime, 60% relative humidity , and a temperature of 24 /20 °C during four weeks prior treatment. Arabidopsis thaliana plants (ecotype Col -0) were grown on soil in growth chambers with white fluorescent light (150 μmol m−2 s−1), under 12 h/12 h light/dark regime, 60% relative humidity, and a temperature of 20/20 °C during six weeks prior treatment.
Reactive Oxygen Species (ROS) Production. ROS assays were performed on four-week old tomato plants or six-week old Arabidopsis plants. Briefly, tomato leaf disks of 6 mm diameter or Arabidopsis petiole sections of 5 mm long were cut and placed in a 96-well plate (Optiplate TM-96 white, PerkinElmer) containing 150 µL of distilled H2O and then incubated at rt for 24 h to reduce the wounding response.11 The elicitation solution containing 0.2 µg•mL−1 luminol (A4685-5 g, Sigma), […] (P6782, Sigma) and the tested glycolipids (1, 2, 3, 4, 5α, 5β, 6α or 6β) at 100 μM was prepared. Methanol (0.5%) was used as negative control. Prior elicitation, the incubating distilled H2O was carefully removed from each well, avoiding any tissue damage or desiccation. Then, the elicitation solution (150 µL) was quickly added to each well containing a leaf disk or a petiole. Luminescence (relative light units, RLU) was measured every 4

[3] = Cytotoxicity, resazurin assay, summary over cell lines; format: cell-based; details: human, DLD-1 and WS1 cells (summary over the three lines); A549, DLD-1 and WS1; read-out: Cytotoxicity IC50 against human cell lines
Experimental: As the anticancer potential of microbial rhamnolipids has previously been reported,[16] we next sought to evaluate the in vitro cytotoxicity of our synthetic and natural glycolipids 1–6 against cancerous cell lines, i.e., human lung carcinoma (A549) and colorectal adenocarcinoma (DLD-1). The compounds were also tested against human normal skin fibroblasts (WS1) to estimate their selectivity towards cancer cells.
4. Experimental Procedures for Biological Evaluation and Surfactant Properties. […]
Cell Culture. Human lung carcinoma (A549), human colorectal adenocarcinoma (DLD-1), and human normal skin fibroblasts (WS1) cell lines were obtained from the American Type Culture Collection (ATCC). All cell lines were cultured in minimum essential medium containing Earle’s […]
salts and L-glutamine (Mediatech Cellgro, VA), to which were added 10% foetal bovine serum (Hyclone), vitamins (1×), penicillin (100 IU•mL-1), streptomycin (100 µg•mL−1), essential amino acids (1×), and sodium pyruvate (1×) (Mediatech Cellgro, VA). Cells were kept at 37 °C in a humidified environment containing 5% CO2.
Cytotoxicity Assay. Exponentially growing A549, DLD-1 or WS1 cells were plated in 96-well microplates (Costar, Corning Inc.) at a density of 5 × 10^3 cells per well in 100 µL of culture medium and were allowed to adhere for 16 h prior treatment. Increasing concentrations of each compound in biotech DMSO (Sigma-Aldrich) were then added (100 µL per well) and the cells were incubated for 48 h. The final concentration of DMSO in the culture medium was maintained at 0.5% (v/v) to avoid solvent toxicity. Cytotoxicity was assessed using resazurin9 on an automated 96-well Fluoroskan Ascent F1TM plate reader (Labsystems) using excitation and emission wavelengths of 530 and 590 nm, respectively. Fluorescence was proportional to the cellular metabolic activity in each well. Survival percentage was defined as the fluorescence in experimental wells as compared to that in control wells after subtraction of blank values. Each experiment was carried out three times in triplicate. IC50 results were expressed as means ± standard deviation. […]

[4] = Dynamic light scattering (Zetasizer), hydrodynamic diameter of micelles; format: physicochemical; details: pH 7.0; concentration 80 μM
Source text: In parallel to these experiments, we took advantage of dynamic light scattering (DLS) to evaluate the hydrodynamic diameter of biosurfactant micelles formed at concentrations above the CMC (Table 4).[79] DLS considers the intensity of light scattered by spherical particles, which prevents its application for highly polydisperse and non-spherical colloidal systems. […] Once again, due to its hydrophobicity, ananatoside A (1) was too polydisperse for conducting a proper distribution analysis, showing a Z-average value above 800 nm, which meant that the particles were aggregated in water at the tested concentration. Similar results were obtained for ananatoside A (1) when the DLS experiments were conducted in DMSO as the solvent.

| SMILES | CMC (critical micelle concentration) [1] | γ CMC (surface tension at CMC) [1] | Extracellular ROS production [2] | IC50 at 48 h [3] | Z-Average (hydrodynamic diameter of micelles) [4] |
| --- | --- | --- | --- | --- | --- |
| CCCCCCC[C@H](CC(=O)O)OC(=O)C[C@@H](CCCCCCC)O[C@@H]1O[C@H](CO)[C@@H](O)[C@H](O)[C@H]1O [Compound 2, ananatoside B] | 63 ± 2 µM | 28 ± 1 | less strong in amplitude, a similar pattern of ROS production | > 200 µM | 99.0 nm |
| CCCCCCC[C@@H]1CC(=O)OC[C@H]2O[C@@H](O[C@H](CCCCCCC)CC(=O)O1)[C@H](O)[C@@H](O)[C@@H]2O [Compound 1, ananatoside A] | 43 ± 2 µM | 37 ± 1 | not | 50 to 58 µM |  |
